Experimental findings from publication PMC12040169 (PLOS Biology, 2025) are described below.

This data set is described as follows: in vitro. Particulars: human, hela cells, % viability.
Turning to `Cc1cc(=O)n2c(C(=O)Nc3cccc(C(=O)O)c3)c(C(=O)Nc3cccc(C)c3C)sc2n1` [CBK297545], the viability (commonly a read-out of living cells in per cent, often relative to untreated cells) at 28.5 h, 10 µM stood at 101%.

Regarding `Cc1cc(=O)n2c(C(=O)Nc3ccc(C(=O)O)cc3)c(C(=O)Nc3cccc(C)c3C)sc2n1` [CBK297547], the viability at 28.5 h, 10 µM amounted to 89.5%.

As for `CC1Cc2ccccc2N1C(=O)Cn1c(CCCO)nc2ccccc21` (stereo not shown) [CBK297548], the viability at 28.5 h, 10 µM stood at 86.1%.

Take `Cc1ccc(Cn2nc(C)c(C(=O)OCc3cc(=O)n4ccccc4n3)c2Cl)cc1` [CBK297550]: the viability at 28.5 h, 10 µM was found to be 85.8%.

With `O=C(O)CCN1C(=O)C(=Cc2ccc(OCc3ccccc3)cc2)c2ccccc2C1=O` [CBK297552], the viability at 28.5 h, 10 µM is 105%.

As to `CCc1ccc(NC(=O)CNc2cc(C)ccc2OC)cc1` [CBK297553], the viability at 28.5 h, 10 µM came to 107%.

As for `CCCCn1c(CSc2ncccc2C(=O)O)nc2cc(S(=O)(=O)N3CCOCC3)ccc21` [CBK297558], the viability at 28.5 h, 10 µM came to 84.1%.

Take `Cc1nnc(CNC(=O)c2cc(-c3ccc(Cl)cc3)nc3ccccc23)o1` [CBK297717]: the viability at 28.5 h, 10 µM is 109%.

Take `Cc1ccccc1CN1CCCN(C(=O)CCNC(=O)c2ccco2)CC1` [CBK297718]: the viability at 28.5 h, 10 µM came to 103%.

With `O=C(NCc1ccc(F)cc1)c1ccc(Cn2ccnc2)cc1` [CBK297719], the viability at 28.5 h, 10 µM stood at 96.3%.

In the case of `CC(Nc1cc(Cl)c(C(F)(F)F)cc1[N+](=O)[O-])c1ccc2[nH]c(=O)[nH]c2c1` (stereo not shown) [CBK297721], the viability at 28.5 h, 10 µM was found to be 86.7%.

Regarding `CCOCN(C(=O)Cn1c(C(C)O)nc2ccccc21)c1c(C)cccc1CC` (stereo not shown) [CBK297722], the viability at 28.5 h, 10 µM was 87.6%.

For the compound `Cc1ccc(C)c(C2C(C(=O)c3ccccc3Cl)=C(O)C(=O)N2c2ccc(CC(=O)O)cc2)c1` (stereo not shown) [CBK297723], the viability at 28.5 h, 10 µM came to 90.7%.

On to `CSc1nc2ccc(Nc3cc(C)nc4ncnn34)cc2s1` [CBK297724], for which the viability at 28.5 h, 10 µM stood at 105%.

`CN(Cc1cccnc1)C(=O)Cc1ccc(-n2cccn2)cc1` [CBK297726]: the viability at 28.5 h, 10 µM was found to be 85.6%.

As to `C#CCNS(=O)(=O)c1ccc(C(=O)Nc2ccnn2Cc2ccccc2)cc1` [CBK297727], the viability at 28.5 h, 10 µM came to 96.4%.

Consider `OCCCc1nc2ccccc2n1CCOc1ccccc1` [CBK297728], for which the viability at 28.5 h, 10 µM was 97.8%.

For `O=C(Nc1cccc(N2CCCC2=O)c1)c1ccccc1Nc1ccccc1` [CBK297729], the viability at 28.5 h, 10 µM worked out at 85.8%.

As to `Cc1n[nH]c(-c2ccccc2NC(=O)Cc2sc(C)nc2-c2cccs2)n1` [CBK297737], the viability at 28.5 h, 10 µM worked out at 88.5%.

Turning to `CCCc1n[nH]c(=S)n1CC(=O)NCc1ccc(N2CC(C)OC(C)C2)nc1` (stereo not shown) [CBK297741], the viability at 28.5 h, 10 µM was 90.4%.

Turning to `CCCc1n[nH]c(=S)n1CC(=O)NCc1ccc(Oc2cc(C)ccc2C)nc1` [CBK297742], the viability at 28.5 h, 10 µM is 87.5%.

On to `CCCc1n[nH]c(=S)n1CC(=O)NCc1ccc(OCCC(C)C)c(OC)c1` [CBK297743], for which the viability at 28.5 h, 10 µM is 84.4%.

For `CCCC(=O)NC1CCN(C(=O)c2snnc2CC)CC1` [CBK297744], the viability at 28.5 h, 10 µM is 97.3%.

On to `COc1ccc(NS(=O)(=O)c2ccc3c(c2)N(CC(=O)O)C(=O)CO3)cc1NS(C)(=O)=O` [CBK297745], for which the viability at 28.5 h, 10 µM was determined as 90.1%.

Regarding `CC(NC(=O)CCCC(=O)c1cccs1)c1cccc2ccccc12` (stereo not shown) [CBK297748], the viability at 28.5 h, 10 µM came out at 105%.

As to `CC(CNC(=O)c1ccc([N+](=O)[O-])o1)N1CCc2sccc2C1` (stereo not shown) [CBK297749], the viability at 28.5 h, 10 µM was 87.9%.

Turning to `Cc1cc(N(C)Cc2ccccc2Br)nc(N)n1` [CBK297753], the viability at 28.5 h, 10 µM amounted to 70.2%.

Take `Cn1c(Sc2ccc(C#N)cn2)nnc1-c1ccco1` [CBK297756]: the viability at 28.5 h, 10 µM was determined as 111%.

Consider `C=CCn1c(-c2sc(NC(=O)c3[nH]c4c(c3C)C(=O)CC(C)(C)C4)nc2C)n[nH]c1=S` [CBK297757], for which the viability at 28.5 h, 10 µM stood at 91%.

As to `Cc1csc(NC(=O)c2c(C)c(C)n[nH]c2=O)n1` [CBK297759], the viability at 28.5 h, 10 µM was found to be 84.4%.

`CCN(CC(=O)NCc1cccs1)C(=O)CN1CCCC1c1ccc(C)cc1` (stereo not shown) [CBK297761]: the viability at 28.5 h, 10 µM is 104%.

Consider `Cc1c(C(=O)Nc2cccc(S(=O)(=O)NCc3ccco3)c2)cnn1-c1ccccc1` [CBK297762], for which the viability at 28.5 h, 10 µM amounted to 89.7%.

Regarding `COc1ccc(C(=O)O)cc1S(=O)(=O)Nc1cccc(C=Cc2ccccn2)c1` [CBK297763], the viability at 28.5 h, 10 µM came out at 110%.

`O=C(Cn1c(-c2cccs2)n[nH]c1=S)N1CCC(c2nc3cc(Cl)ccc3o2)CC1` [CBK297765]: the viability at 28.5 h, 10 µM was determined as 95%.

For the compound `Cc1ccc(S(=O)(=O)Nc2ccc(C(C)C)cc2)cc1C(=O)O` [CBK297766], the viability at 28.5 h, 10 µM was determined as 84.2%.

With `CC(=O)NCCNC(=O)c1cc(Br)c[nH]1` [CBK297767], the viability at 28.5 h, 10 µM stood at 88.3%.

In the case of `Cc1ccc(CN2CCCN(C(=O)Cn3nc4ccccn4c3=O)CC2)cc1` [CBK297768], the viability at 28.5 h, 10 µM stood at 79.7%.

`CCCCN(C(=O)C(F)(F)c1ccccc1)c1c(N)n(CCC)c(=O)[nH]c1=O` [CBK297769]: the viability at 28.5 h, 10 µM was determined as 91.4%.

Turning to `Cc1ccc(-c2nc(C)c(C(=O)Nc3ccc(-n4cncn4)nc3)s2)o1` [CBK297770], the viability at 28.5 h, 10 µM was 95.3%.

Take `Cc1nc(-c2ccco2)nc2sc(C(=O)NCc3nnc4ccccn34)c(C)c12` [CBK297773]: the viability at 28.5 h, 10 µM stood at 107%.

Consider `Cc1nc(COC(=O)c2ccc(C#N)c(C)n2)cs1` [CBK297775], for which the viability at 28.5 h, 10 µM was found to be 88.9%.

In the case of `Cc1ccn2c(=O)cc(COC(=O)c3sc4nc(C)cc(C)c4c3N)nc2c1` [CBK297783], the viability at 28.5 h, 10 µM was 93.3%.

As for `CC(C)CN(CC(C)C)C(=O)Cn1cc([N+](=O)[O-])cc(C(N)=O)c1=O` [CBK297784], the viability at 28.5 h, 10 µM was 83.9%.

With `COc1ccc(C2=NN(C(=O)CCCC(=O)O)C(c3ccc4nccnc4c3)C2)cc1OC` (stereo not shown) [CBK297785], the viability at 28.5 h, 10 µM was determined as 84.2%.

Regarding `CCc1nn2c(=O)cc(CNc3ccc4c(c3)OCCO4)nc2s1` [CBK297787], the viability at 28.5 h, 10 µM was determined as 99.2%.

`COC(=O)c1cc(C#N)c(=O)n(CC(=O)N(C)Cc2ccsc2)c1` [CBK297788]: the viability at 28.5 h, 10 µM was found to be 115%.

Turning to `O=C(CNC(=O)c1ccc(OC(F)F)cc1)NCCCn1cccn1` [CBK297789], the viability at 28.5 h, 10 µM amounted to 106%.

For the compound `CC(NC(=O)CS(=O)(=O)Cc1ccc(C#N)cc1)c1ccc(C#N)cc1` (stereo not shown) [CBK297791], the viability at 28.5 h, 10 µM worked out at 91.1%.

As to `Cc1ccc(CN2CCCN(C(=O)CCn3cnc4c(cnn4C)c3=O)CC2)cc1` [CBK297793], the viability at 28.5 h, 10 µM turned out to be 79.8%.

As for `Cn1nnnc1-c1cccc(NC(=O)c2ccc(Oc3ccccc3)cc2)c1` [CBK297872], the viability at 28.5 h, 10 µM came out at 81.6%.

On to `CCOC(=O)c1sc2cccc(F)c2c1COC(=O)c1ccc(CNC(N)=O)cc1` [CBK297873], for which the viability at 28.5 h, 10 µM was determined as 101%.

Take `Cc1cc(C(=O)CSc2nnc(-c3ccccc3F)n2CC(C)C)c(C)[nH]1` [CBK297877]: the viability at 28.5 h, 10 µM was 85.1%.

As for `CCOC(=O)C1=C(C)N(c2ccc(C(=O)O)cc2)C(=O)NC1c1ccc(OC(F)F)c(OC)c1` (stereo not shown) [CBK297878], the viability at 28.5 h, 10 µM came to 90.1%.

On to `CCC(CC)(CC(=O)Nc1ccc(N2CCCC2=O)c(C)c1)C(=O)O` [CBK297881], for which the viability at 28.5 h, 10 µM was determined as 101%.

Turning to `CCC(CC)(CC(=O)Nc1ccc2nc(C)sc2c1)C(=O)O` [CBK297882], the viability at 28.5 h, 10 µM worked out at 112%.

For `Cc1cc(N2CCCC2)ccc1NC(=O)CCn1c(-c2cccs2)n[nH]c1=S` [CBK297883], the viability at 28.5 h, 10 µM is 86.6%.

Turning to `CCOC(=O)NC(=O)CSc1nnc(C2COc3ccccc3O2)n1-c1ccccc1` (stereo not shown) [CBK297884], the viability at 28.5 h, 10 µM is 88.9%.

Regarding `Cc1ccc(C(=O)CCC(=O)N2CCCC2c2ccc(F)cc2)cc1` (stereo not shown) [CBK297885], the viability at 28.5 h, 10 µM was 96.2%.

Take `C=CCn1c(-c2sc(NC(=O)Cn3c(=O)n(CCC)c4ccccc43)nc2C)n[nH]c1=S` [CBK297890]: the viability at 28.5 h, 10 µM is 97.7%.

Turning to `Cn1cccc1C(=O)NCCNC(=O)c1cc2ccccc2[nH]1` [CBK297894], the viability at 28.5 h, 10 µM turned out to be 87.7%.

In the case of `O=C(c1cc(O)nc2ccccc12)N1CCN(S(=O)(=O)N2CCCC2)CC1` [CBK297898], the viability at 28.5 h, 10 µM is 88.6%.

In the case of `CC(OC(=O)c1ccc2nccnc2c1)c1cccc([N+](=O)[O-])c1` (stereo not shown) [CBK297901], the viability at 28.5 h, 10 µM is 78.5%.

Regarding `OC(COc1ccccc1F)CSc1nc(NC2CC2)c2ccccc2n1` (stereo not shown) [CBK297902], the viability at 28.5 h, 10 µM is 86.7%.

Consider `Cc1[nH]c2ccccc2c1C(=O)CSc1nccn1Cc1ccccc1` [CBK297905], for which the viability at 28.5 h, 10 µM was determined as 76.6%.

On to `COc1ccc(C(=O)Nc2c(C)nn(-c3ccccc3)c2C)cc1S(=O)(=O)NC1CC1` [CBK297906], for which the viability at 28.5 h, 10 µM was 85.7%.

Regarding `Cc1ccc(-c2n[nH]c(=S)n2CC(=O)N(C)Cc2ccc(N3CCOCC3)cc2)cc1` [CBK297908], the viability at 28.5 h, 10 µM stood at 85.9%.

Consider `C=CCn1c(-c2sc(NC(=O)CN3C(=C)c4ccccc4C3=O)nc2C)n[nH]c1=S` [CBK297909], for which the viability at 28.5 h, 10 µM was determined as 84.4%.

In the case of `CC(C)C(=O)N1CCN(C(=O)Cn2c(-c3ccc(Cl)cc3)n[nH]c2=S)CC1` [CBK297910], the viability at 28.5 h, 10 µM turned out to be 100%.

In the case of `Cc1ccc(S(=O)(=O)N2CCCN(CC(O)c3ccccc3)CC2)cc1` (stereo not shown) [CBK297911], the viability at 28.5 h, 10 µM came to 104%.

For `Cc1[nH]c2ccccc2c1C(=O)CSc1nncc2ccccc12` [CBK297912], the viability at 28.5 h, 10 µM was 92.1%.

On to `COc1ccc(O)c(C(=O)c2cnn(-c3ccc(Cl)c(C(=O)O)c3)c2)c1` [CBK297914], for which the viability at 28.5 h, 10 µM came out at 90.2%.

Turning to `CN(C)c1cc(CNC(=O)c2cc3ccccc3oc2=O)ccn1` [CBK297917], the viability at 28.5 h, 10 µM turned out to be 88.8%.

`CN(C)C(=O)CN1CCN(C(=O)c2ccccc2C(=O)c2ccc(F)cc2)CC1` [CBK297921]: the viability at 28.5 h, 10 µM came to 89.5%.

As to `Cc1ccc(-c2n[nH]c(=S)n2CCC(=O)NCc2ccc(-c3csc(C)n3)s2)cc1` [CBK297924], the viability at 28.5 h, 10 µM was 84.5%.

As to `CSc1nc(C)c(CCC(=O)N(C)Cc2c(C)nn(-c3ccccc3)c2C)c(=O)[nH]1` [CBK297925], the viability at 28.5 h, 10 µM amounted to 84.5%.

Regarding `COC(=O)c1cc(C#N)c(=O)n(CC(=O)Nc2ccc(OC)c(OC)c2)c1` [CBK297926], the viability at 28.5 h, 10 µM stood at 102%.
